Assay results from BigSolDB 2.1.

O=C(NC[C@H]1CN(c2ccc(N3CCOCC3=O)cc2)C(=O)O1)c1ccc(Cl)s1
solubility (mole fraction)
Conditions | 278.15 K | 283.15 K | 288.15 K | 293.15 K | 298.15 K | 303.15 K | 308.15 K | 313.15 K | 318.15 K
in DMAc | 0.00978 | 0.0108 | 0.0119 | 0.0131 | 0.0144 | 0.0158 | 0.0173 | 0.0189 | 0.0206
in DMF | 0.00586 | 0.00662 | 0.00747 | 0.0084 | 0.00943 | 0.0106 | 0.0118 | 0.0132 | 0.0147
in THF | 0.000205 | 0.00023 | 0.000263 | 0.00029 | 0.000328 | 0.000359 | 0.000401 | 0.00045 | 0.000511
in ethyl acetate | 5.17e-05 | 5.93e-05 | 6.79e-05 | 7.74e-05 | 8.81e-05 | 0.0001 | 0.000113 | 0.000128 | 0.000144
